Measured values from patent US20220031723A1, “POWDERED FOOD COMPOSITION COMPRISING ERIOCITRIN” (EUROMED, S.A., priority 2020, published 2022).
In brackets after ≈: the same amount, converted by molar mass.

How the values were obtained:
[1] = cited from earlier work; for water solubility: in water
[2] = Urinary excretion of quantified metabolites in collected fractions after extract intake; format: in vivo, human; details: mean ± SD; for Metabolite quantified in urine fraction F1: fraction 0 to 4 h; for Metabolite quantified in urine fraction F2: fraction 4 to 8 h; for Metabolite quantified in urine fraction F3: fraction 8 to 10 h; for Metabolite quantified in urine fraction F4: fraction collected at 24 h (10-24 h); for Metabolite quantified in urine, Total F (24 h): sum of fractions F1-F4
Procedure: Table 4 and Table 5 show the urinary excretion of quantified metabolites at the different fractions collected, i.e., 0-4 h (F1), 4-8 h (F2), 8-10 h (F3), and 10-24 h (F4), after extracts intake.

[3] = Occurrence of plasma and urine metabolites in volunteers after consuming lemon or orange extract; format: in vivo, human; details: human, in vivo
From the text: Through a targeted metabolomic strategy, a total of 17 metabolites were tentatively identified (Table 3). No hesperidin or eriocitrin-derived metabolites were detected in any volunteer at baseline. All the identified metabolites were detected at least in one volunteer, independently of the extract consumed, except for the metabolites M9 (eriodictyol sulfoglucuronide) and M11 (hesperetin sulfoglucuronide), which only were detected after consuming lemon and orange extract, respectively (Table 3). These representative EICs illustrate the metabolites identified in urine (F3 fraction) after consuming lemon (FIG. 3A) and orange (FIG. 3B) extracts, and plasma after consuming lemon (FIG. 3C) and orange (FIG. 3D) extracts. From the 17 metabolites, 16 were detected after consuming lemon extract (except M11), and 15 after consuming orange extract (except M9 and M10 in urine, and M9 and M12 in plasma) (Table 3).

Metabolite quantified in urine fraction F1 ([2]; after consuming lemon extract) [μg/mg creatinine]	Metabolite quantified in urine fraction F2 ([2]; after consuming lemon extract) [μg/mg creatinine]	Metabolite quantified in urine fraction F3 ([2]; after consuming lemon extract) [μg/mg creatinine]	Metabolite quantified in urine fraction F4 ([2]; after consuming lemon extract) [μg/mg creatinine]	Metabolite quantified in urine, Total F (24 h) ([2]; after consuming lemon extract) [μg/mg creatinine]	Metabolite quantified in urine fraction F1 ([2]; after consuming orange extract) [μg/mg creatinine]	Metabolite quantified in urine fraction F2 ([2]; after consuming orange extract) [μg/mg creatinine]	Metabolite quantified in urine fraction F3 ([2]; after consuming orange extract) [μg/mg creatinine]	Metabolite quantified in urine fraction F4 ([2]; after consuming orange extract) [μg/mg creatinine]	Metabolite quantified in urine, Total F (24 h) ([2]; after consuming orange extract) [μg/mg creatinine]	Occurrence Plasma LE (number of volunteers in whom metabolite was detected) [3]	Occurrence Plasma LE (second column so headed; number of volunteers in whom metabolite was detected) [3]	Occurrence Urine LE (number of volunteers in whom metabolite was detected) [3]	Occurrence Urine LE (second column so headed; number of volunteers in whom metabolite was detected) [3]	SMILES	solubility in water [1] [micrograms/ml]	water solubility [1]
–	–	–	–	–	–	–	–	–	–	–	–	–	–	C[C@@H]1O[C@@H](OC[C@H]2O[C@@H](Oc3cc(O)c4c(c3)O[C@H](c3ccc(O)c(O)c3)CC4=O)[C@H](O)[C@@H](O)[C@@H]2O)[C@H](O)[C@H](O)[C@H]1O [eriocitrin, Eriocitrin]	4000	about 40 mg/ml
–	–	–	–	–	–	–	–	–	–	–	–	–	–	COc1ccc([C@@H]2CC(=O)c3c(O)cc(O[C@@H]4O[C@H](CO[C@@H]5O[C@@H](C)[C@H](O)[C@@H](O)[C@H]5O)[C@@H](O)[C@H](O)[C@H]4O)cc3O2)cc1O [hesperidin, Hesperidin, reference compound]	5	4.9 µg/mL (≈ 8.03 µM)
1.9 ± 2.6	4.3 ± 4.5	3.3 ± 3.1	0.7 ± 0.6	9.0 ± 9.1	0.1 ± 0.3	1.2 ± 3.3	1.9 ± 3.1	0.6 ± 0.6	3.8 ± 7.3	16	16	16	16	COc1ccc(C2CC(=O)c3c(O)cc(O)cc3O2)cc1OS(=O)(=O)O (stereo not drawn) [M14, Hesperetin 3'-O-sulfate]	–	–
